According to patent US20050197350A1, “Novel quinoline, tetrahydroquinazoline, and pyrimidine derivatives and methods of treatment related to the use thereof” (TAISHO PHARMACEUTICAL CO., LTD., priority 2003, published 2005):

The molecules below were run on MCH receptors (assay: MCH receptor activity class (method not given)). Details: class by percent of control at 10^−7 M or IC50.

Q: Which class does the source give for `Cc1cc(N(C)C)nc(N[C@H]2CC[C@@H](NC(=O)c3ccc(C(F)(F)F)c(F)c3)CC2)n1` [compound 2960, N-(cis-4-{[4-(dimethylamino)-6-methylpyrimidin-2-yl]amino}cyclohexyl)-3-fluoro-4-(trifluoromethyl)benzamide] here?
A: Its class is 2 (Class 2: The value of percent of control at 10^−7 M was from 40% to 60% or the value of IC′50 was from 50 nM to 200 nM.).

Q: `Cc1cc(N(C)C)nc(N[C@H]2CC[C@@H](NC(=O)c3ccc(F)c(C(F)(F)F)c3)CC2)n1` [compound 2961] was tested. Which class did it give?
A: The class was 1 (Class 1: The value of percent of control at 10^−7 M was less than 40% or the value of IC50 was less than 50 nM.).

Q: Which class does the source give for `Cc1cc(N(C)C)nc(N[C@H]2CC[C@@H](NC(=O)c3cc(F)cc(C(F)(F)F)c3)CC2)n1` [compound 2962, N-(cis-4-{[4-(dimethylamino)-6-methylpyrimidin-2-yl]amino}cyclohexyl)-3-fluoro-5-(trifluoromethyl)benzamide] here?
A: Its class is 1 (Class 1: The value of percent of control at 10^−7 M was less than 40% or the value of IC50 was less than 50 nM.).

Q: For `Cc1cc(N(C)C)nc(N[C@H]2CC[C@@H](NC(=O)c3ccc(F)c(Cl)c3)CC2)n1` [compound 2963], which class is on record?
A: The class was 1 (Class 1: The value of percent of control at 10^−7 M was less than 40% or the value of IC50 was less than 50 nM.).

Q: For `Cc1cc(N(C)C)nc(N[C@H]2CC[C@@H](NC(=O)c3ccc(F)c(C)c3)CC2)n1` [compound 2964, N-(cis-4-{[4-(dimethylamino)-6-methylpyrimidin-2-yl]amino}cyclohexyl)-4-fluoro-3-methylbenzamide], which class is on record?
A: Its class is 1 (Class 1: The value of percent of control at 10^−7 M was less than 40% or the value of IC50 was less than 50 nM.).

Q: Which class does the source give for `Cc1cc(N(C)C)nc(N[C@H]2CC[C@@H](NC(=O)c3ccc(C)c(F)c3)CC2)n1` [compound 2965, N-(cis-4-{[4-(dimethylamino)-6-methylpyrimidin-2-yl]amino}cyclohexyl)-3-fluoro-4-methylbenzamide] here?
A: Its class is 1 (Class 1: The value of percent of control at 10^−7 M was less than 40% or the value of IC50 was less than 50 nM.).

Q: `Cc1cc(N(C)C)nc(N[C@H]2CC[C@@H](NC(=O)c3cc(Cl)cc(Cl)c3)CC2)n1` [compound 2966, 3,5-dichloro-N-(cis-4-{[4-(dimethylamino)-6-methylpyrimidin-2-yl]amino}cyclohexyl)benzamide] was tested. Which class did it give?
A: Its class is 1 (Class 1: The value of percent of control at 10^−7 M was less than 40% or the value of IC50 was less than 50 nM.).

Q: With `Cc1cc(N(C)C)nc(N[C@H]2CC[C@@H](NC(=O)c3cccc(OC(F)(F)F)c3)CC2)n1` [compound 2967, N-(cis-4-{[4-(dimethylamino)-6-methylpyrimidin-2-yl]amino}cyclohexyl)-3-(trifluoromethoxy)benzamide] as the molecule, how does the class read?
A: The class was 1 (Class 1: The value of percent of control at 10^−7 M was less than 40% or the value of IC50 was less than 50 nM.).

Q: How did the class turn out when `Cc1cc(N(C)C)nc(N[C@H]2CC[C@@H](NC(=O)c3cc(F)cc(F)c3)CC2)n1` [compound 2968, N-(cis-4-{[4-(dimethylamino)-6-methylpyrimidin-2-yl]amino}cyclohexyl)-3,5-difluorobenzamide] was run?
A: The class was 1 (Class 1: The value of percent of control at 10^−7 M was less than 40% or the value of IC50 was less than 50 nM.).

Q: With `Cc1cc(N(C)C)nc(N[C@H]2CC[C@@H](NC(=O)c3ccc(Br)c(C)c3)CC2)n1` [compound 2969, 4-bromo-N-(cis-4-{[4-(dimethylamino)-6-methylpyrimidin-2-yl]amino}cyclohexyl)-3-methylbenzamide] as the molecule, how does the class read?
A: Its class is 1 (Class 1: The value of percent of control at 10^−7 M was less than 40% or the value of IC50 was less than 50 nM.).

Q: For `CCc1cccc(C(=O)N[C@H]2CC[C@@H](Nc3nc(C)cc(N(C)C)n3)CC2)c1` [compound 2970, N-(cis-4-{[4-(dimethylamino)-6-methylpyrimidin-2-yl]amino}cyclohexyl)-3-ethylbenzamide], which class is on record?
A: Its class is 3 (Class 3 The value of percent of control at 10^−7 M was more than 60% or the value of IC50 was more than 200 nM.).

Q: For `CCOc1ccc(C(=O)N[C@H]2CC[C@@H](Nc3nc(C)cc(N(C)C)n3)CC2)cc1` [compound 2971], which class is on record?
A: The class was 3 (Class 3 The value of percent of control at 10^−7 M was more than 60% or the value of IC50 was more than 200 nM.).

Q: With `Cc1cc(N(C)C)nc(N[C@H]2CC[C@@H](NC(=O)c3ccc(C(F)(F)F)cc3)CC2)n1` [compound 2972, N-(cis-4-{[4-(dimethylamino)-6-methylpyrimidin-2-yl]amino}cyclohexyl)-4-(trifluoromethyl)benzamide] as the molecule, how does the class read?
A: The class was 2 (Class 2: The value of percent of control at 10^−7 M was from 40% to 60% or the value of IC′50 was from 50 nM to 200 nM.).

Q: `Cc1cc(N(C)C)nc(N[C@H]2CC[C@@H](NC(=O)c3ccc(Br)cc3)CC2)n1` [compound 2973, 4-bromo-N-(cis-4-{[4-(dimethylamino)-6-methylpyrimidin-2-yl]amino}cyclohexyl)benzamide] was tested. Which class did it give?
A: The class was 1 (Class 1: The value of percent of control at 10^−7 M was less than 40% or the value of IC50 was less than 50 nM.).

Q: For `CCc1ccc(C(=O)N[C@H]2CC[C@@H](Nc3nc(C)cc(N(C)C)n3)CC2)cc1` [compound 2974, N-(cis-4-{[4-(dimethylamino)-6-methylpyrimidin-2-yl]amino}cyclohexyl)-4-ethylbenzamide], which class is on record?
A: The class was 2 (Class 2: The value of percent of control at 10^−7 M was from 40% to 60% or the value of IC′50 was from 50 nM to 200 nM.).

Q: Which class does the source give for `CCOc1cc(OCC)cc(C(=O)N[C@H]2CC[C@@H](Nc3nc(C)cc(N(C)C)n3)CC2)c1` [compound 2975, N-(cis-4-{[4-(dimethylamino)-6-methylpyrimidin-2-yl]amino}cyclohexyl)-3,5-diethoxybenzamide] here?
A: The class was 1 (Class 1: The value of percent of control at 10^−7 M was less than 40% or the value of IC50 was less than 50 nM.).

Q: How did the class turn out when `CCOc1cccc(C(=O)N[C@H]2CC[C@@H](Nc3nc(C)cc(N(C)C)n3)CC2)c1` [compound 2976, N-(cis-4-{[4-(dimethylamino)-6-methylpyrimidin-2-yl]amino}cyclohexyl)-3-ethoxybenzamide] was run?
A: Its class is 2 (Class 2: The value of percent of control at 10^−7 M was from 40% to 60% or the value of IC′50 was from 50 nM to 200 nM.).

Q: `Cc1cc(N(C)C)nc(N[C@H]2CC[C@@H](NC(=O)c3cccc(OC(C)C)c3)CC2)n1` [compound 2977, N-(cis-4-{[4-(dimethylamino)-6-methylpyrimidin-2-yl]amino}cyclohexyl)-3-isopropoxybenzamide] was tested. Which class did it give?
A: Its class is 1 (Class 1: The value of percent of control at 10^−7 M was less than 40% or the value of IC50 was less than 50 nM.).

Q: For `Cc1cc(N(C)C)nc(N[C@H]2CC[C@@H](NC(=O)c3cncc(Br)c3)CC2)n1` [compound 2978, 5-bromo-N-(cis-4-{[4-(dimethylamino)-6-methylpyrimidin-2-yl]amino}cyclohexyl)nicotinamide], which class is on record?
A: Its class is 1 (Class 1: The value of percent of control at 10^−7 M was less than 40% or the value of IC50 was less than 50 nM.).

Q: Which class does the source give for `Cc1cc(N(C)C)nc(N[C@H]2CC[C@@H](NC(=O)c3ccc(Br)o3)CC2)n1` [compound 2979, 5-bromo-N-(cis-4-{[4-(dimethylamino)-6-methylpyrimidin-2-yl]amino}cyclohexyl)-2-furamide] here?
A: Its class is 1 (Class 1: The value of percent of control at 10^−7 M was less than 40% or the value of IC50 was less than 50 nM.).

Q: For `Cc1cc(N(C)C)nc(N[C@H]2CC[C@@H](NC(=O)c3ccc(Cl)o3)CC2)n1` [compound 2980, 5-chloro-N-(cis-4-{[4-(dimethylamino)-6-methylpyrimidin-2-yl]amino}cyclohexyl)-2-furamide], which class is on record?
A: Its class is 1 (Class 1: The value of percent of control at 10^−7 M was less than 40% or the value of IC50 was less than 50 nM.).

Q: With `COc1ccc(C(=O)N[C@H]2CC[C@@H](Nc3nc(C)cc(N(C)C)n3)CC2)cc1C(F)(F)F` [compound 2981, N-(cis-4-{[4-(dimethylamino)-6-methylpyrimidin-2-yl]amino}cyclohexyl)-4-methoxy-3-(trifluoromethyl)benzamide] as the molecule, how does the class read?
A: Its class is 2 (Class 2: The value of percent of control at 10^−7 M was from 40% to 60% or the value of IC′50 was from 50 nM to 200 nM.).

Q: With `Cc1cc(N(C)C)nc(N[C@H]2CC[C@@H](NC(=O)c3ccc(Cl)c(C(F)(F)F)c3)CC2)n1` [compound 2982] as the molecule, how does the class read?
A: The class was 1 (Class 1: The value of percent of control at 10^−7 M was less than 40% or the value of IC50 was less than 50 nM.).

Q: `Cc1cccc(C(=O)N[C@H]2CC[C@@H](Nc3nc(C)cc(N(C)C)n3)CC2)c1` [compound 2983, N-(cis-4-{[4-(dimethylamino)-6-methylpyrimidin-2-yl]amino}cyclohexyl)-3-methylbenzamide] was tested. Which class did it give?
A: The class was 1 (Class 1: The value of percent of control at 10^−7 M was less than 40% or the value of IC50 was less than 50 nM.).

Q: With `COc1cccc(C(=O)N[C@H]2CC[C@@H](Nc3nc(C)cc(N(C)C)n3)CC2)c1` [compound 2984, N-(cis-4-{[4-(dimethylamino)-6-methylpyrimidin-2-yl]amino}cyclohexyl)-3-methoxybenzamide] as the molecule, how does the class read?
A: The class was 1 (Class 1: The value of percent of control at 10^−7 M was less than 40% or the value of IC50 was less than 50 nM.).

Q: For `Cc1ccc(C(=O)N[C@H]2CC[C@@H](Nc3nc(C)cc(N(C)C)n3)CC2)cc1` [compound 2985, N-(cis-4-{[4-(dimethylamino)-6-methylpyrimidin-2-yl]amino}cyclohexyl)-4-methylbenzamide], which class is on record?
A: The class was 1 (Class 1: The value of percent of control at 10^−7 M was less than 40% or the value of IC50 was less than 50 nM.).

Q: With `Cc1cc(N(C)C)nc(N[C@H]2CC[C@@H](NC(=O)c3ccc(Cl)cc3)CC2)n1` [compound 2986] as the molecule, how does the class read?
A: Its class is 1 (Class 1: The value of percent of control at 10^−7 M was less than 40% or the value of IC50 was less than 50 nM.).

Q: `Cc1cc(N(C)C)nc(N[C@H]2CC[C@@H](NC(=O)c3cccc(Cl)c3)CC2)n1` [compound 2987] was tested. Which class did it give?
A: Its class is 1 (Class 1: The value of percent of control at 10^−7 M was less than 40% or the value of IC50 was less than 50 nM.).

Q: `Cc1cc(N(C)C)nc(N[C@H]2CC[C@@H](NC(=O)c3ccc(F)c(F)c3)CC2)n1` [compound 2988, N-(cis-4-{[4-(dimethylamino)-6-methylpyrimidin-2-yl]amino}cyclohexyl)-3,4-difluorobenzamide] was tested. Which class did it give?
A: Its class is 1 (Class 1: The value of percent of control at 10^−7 M was less than 40% or the value of IC50 was less than 50 nM.).
